# PubChem BioAssay AID449750 (Broad Institute, 2010)
# The source made the active and inactive calls. The rule behind the calls is not given here.
# Assay: non-covalent RecA intein splicing inhibitors, dose response, biochemical, cell-free, fluorescence, secondary screen (AID 449750)
row,Structure (SMILES),AC50
1,O=C(Oc1ccc(-n2cnnn2)cc1)c1ccco1,> 38 µM (inactive)
2,O=C(Cc1cc(=O)[nH][nH]1)N/N=C/c1cccc(Cl)c1Cl,20 µM
3,COc1ccc(CN(C(=O)CSc2nnc(-c3ccccc3C)o2)c2ccc(F)cc2)cc1,21.9 µM
4,Nc1nc(CCl)nc(Nc2ccc3ccccc3c2)n1,15.7 µM
5,CS(=O)(=O)c1ccc(C(=O)OCC(=O)NC23CC4CC(CC(C4)C2)C3)cc1[N+](=O)[O-],> 38 µM (inactive)
6,Cc1c(OCC(=O)Nc2cccnc2)ccc2c3c(c(=O)oc12)CCC3,> 38 µM (inactive)
7,CC(=O)Nc1ccccc1NC(=O)C/C(C)=N/NC(=O)C(=O)N1CCCCC1,> 38 µM (inactive)
8,CCOC(=O)/C=c1\s/c(=C(\C#N)C(N)=O)n(-c2ccccc2)c1=O,> 38 µM (inactive)
9,COC(=O)C(O)(c1c(C)[nH]n(-c2ccccc2)c1=O)C(F)(F)F (stereo not given),5.49 µM
10,O=C(Nc1ccccc1)NN(C(=O)CCl)c1ccccc1,6.12 µM
11,CCc1cc(C(=O)c2ccc(C)cc2)c(NC(=O)CCl)s1,2.62 µM
12,CC1=NN(c2ccccc2)C(=O)/C1=C/c1cccc(C)c1,4.14 µM
13,C#CCOC(=O)c1ccccc1C(=O)n1nnc2ccccc21,> 38 µM (inactive)
14,Cc1ccc(C(=O)N/N=C\c2cc(Br)c(Br)o2)cn1,15.7 µM
15,COc1ccc(NC(=O)/C(C#N)=C/c2ncc([N+](=O)[O-])n2C)c(OC)c1,> 38 µM (inactive)
16,CCCc1[nH]nc2c1C(c1ccc(OC)c(CSC3=NCCS3)c1)C(C#N)=C(N)O2 (stereo not given),18.5 µM
17,Cc1[nH]n(-c2ccccc2)c(=O)c1C(c1ccc([N+](=O)[O-])cc1)c1c(C)[nH]n(-c2ccccc2)c1=O,3.88 µM
18,Cc1onc(-c2ccccc2)c1-c1nc2ccccc2c(=O)o1,> 38 µM (inactive)
19,CC1=NN(c2ccc(Cl)c(C(=O)O)c2)C(=O)/C1=C\c1ccc(-c2ccc(C(=O)O)cc2)o1,34.1 µM
20,CC(C)Oc1cccc(C(=O)C2CCCN(C(=O)c3csnn3)C2)c1 (stereo not given),> 38 µM (inactive)
21,CC1CCc2c(sc3nc(C(C)(C)C)nc(N4CCN(C(=O)CCl)CC4)c23)C1 (stereo not given),2.61 µM
22,COCCN(C(=O)CCl)C(C(=O)NC1CCCCC1)c1ccccc1C (stereo not given),8.09 µM
23,O=C(Oc1ccc(Br)cc1C(=S)N1CCOCC1)c1cccc([N+](=O)[O-])c1,> 38 µM (inactive)
24,COC(=O)C1CN(C#N)N(c2ccc(Cl)cc2)C12c1ccccc1-c1ccccc12 (stereo not given),10.7 µM
25,CCOc1cc(/C=N\NC(=O)OC(C)(C)C)ccc1OC(=O)c1ccco1,> 38 µM (inactive)
26,CCOc1cc(/C=C2/C(=O)N(c3ccccc3)N=C2C)ccc1OC(=O)c1ccco1,3.17 µM
27,CCOC(=O)CSCC(=O)N1N=C(c2cccs2)CC1c1ccc(F)cc1 (stereo not given),16.9 µM

row,Structure (SMILES),AC50
1,CC1=NN(c2ccc(Cl)cc2)C(=O)C1,3.71 µM
2,Cc1ccccc1Nc1cc2ccccc2c(=O)[nH]1,1.54 µM
3,CCCCCc1cc(=O)oc2c(C(CCN3CCCC(C)C3)c3ccc(N(C)C)cc3)c(OC)cc(OC)c12 (stereo not given),> 38 µM (inactive)
4,CC(C)N(CC(=O)Nc1ccc(Cl)cc1C(F)(F)F)C(=O)CCl,12.9 µM
5,COC(=O)c1sc(N)c(C(=O)OC)c1Cn1ncc(Cl)c(Cl)c1=O,> 38 µM (inactive)
6,O=C(NNC(=O)c1ccc([N+](=O)[O-])o1)c1ccccc1,33.6 µM
7,N#CC1=C(N)Oc2n[nH]c(-c3ccccc3)c2C1c1cccc(OC(=O)N2CCOCC2)c1 (stereo not given),32.7 µM
8,CCNC(=O)c1ccccc1-c1nc(-c2ccccc2)no1,> 38 µM (inactive)
9,CSc1ccc(C(c2c(C)[nH][nH]c2=O)c2c(C)[nH][nH]c2=O)cc1,7.2 µM
10,Cc1ccc(C(=O)C2C(c3ccc(-c4ccccc4[N+](=O)[O-])o3)NC(=O)NC2(O)C(F)(F)F)cc1 (stereo not given),19.9 µM
11,CCCCOP(=O)(OCCCC)C1(NS(=O)(=O)c2ccccc2)C=CC(=O)c2ccccc21 (stereo not given),9.07 µM
12,CCOC(=O)c1c(C)oc2c1c1c(c3ccccc32)OCN(CCCC(=O)O)C1,4.93 µM
13,N#Cc1cc(-c2ccccc2)nc(Oc2ccccc2)n1,> 38 µM (inactive)
14,N#C/C(=C\c1cccc(O)c1)c1nc2ccccc2o1,> 38 µM (inactive)
15,CCc1[nH]nc2c1C(Cc1ccccc1)C(C#N)=C(N)O2 (stereo not given),> 38 µM (inactive)
16,CC(=O)c1c(C)nc(-c2ccc(Cl)cc2)nc1N=CN(C)C,> 38 µM (inactive)
17,CN1c2ccccc2C(C)(C)C12C=Nc1c(ccc3ccccc13)O2 (stereo not given),21.2 µM
18,Cc1ccc(S(=O)(=O)NC(=O)Nc2ccc(N(C)C)cc2)cc1,31 µM
19,CCCC(=O)OCCNc1cc(Sc2nc3ccccc3[nH]2)c2nonc2c1[N+](=O)[O-],> 38 µM (inactive)
20,O=[N+]([O-])c1cc(-c2ccc(C(=S)N3CCOCC3)o2)ccc1Cl,18.4 µM
21,Cc1c(-c2nn(C)c(=O)c3ccccc23)oc2ccc(F)cc2c1=O,3 µM
22,Cc1nn(-c2ccccc2)c2c1C(c1ccncc1)C(C#N)=C(N)O2 (stereo not given),> 38 µM (inactive)
23,Cc1[nH]nc2c1C1(CCOCC1)C(C#N)=C(N)O2,> 38 µM (inactive)
24,O=C(c1ccc2nc(Cc3cccc(Cl)c3)oc2c1)N1CCC(O)CC1,> 38 µM (inactive)
25,O=C1NCN(c2ccccc2)C12CCN(CCCC(c1ccc(F)cc1)c1ccc(F)cc1)CC2,16.5 µM
26,O=C(CCl)Oc1ccc2occ(C(=O)c3cccs3)c2c1,> 38 µM (inactive)
27,CC1(C)C=C2C(=NN(c3ccccc3)C(N)=C2C#N)CO1,3.43 µM

row,Structure (SMILES),AC50
1,Cc1ccc2c(c1)c1c3n2CCN(C(=O)CCl)C3CCC1 (stereo not given),3.29 µM
2,COc1cc(C=C(c2nc3ccccc3s2)c2nc3ccccc3s2)ccc1O,3.26 µM
3,CCOC(=O)C(C(=O)OCC)c1cc(Br)c2noc3c2c1C(=O)c1ccccc1-3,8.74 µM
4,CC(C)(C)OC(=O)N/N=C\c1ccc(OC(=O)c2ccco2)cc1,> 38 µM (inactive)
5,COc1cc(N=Nc2cccc(S(N)(=O)=O)c2)c2ccccc2c1N,34.1 µM
6,COC(=O)CSc1nc2sc3c(c2c(=O)n1C1CCCCC1)CCN(C)C3,> 38 µM (inactive)
7,CCCc1[nH][nH]c(=O)c1C(c1cccc(Cl)c1)C(C#N)C#N (stereo not given),9.32 µM
8,O=C1N=NC2=C1c1c3ccccc3c(O)n1CC2,3.03 µM
9,Oc1c(Cl)cc(Cl)c(Cl)c1Cc1c(O)c(Cl)cc(Cl)c1Cl,6.85 µM
10,Cc1cccc(NC2=C(NC(=O)c3ccccc3)C(=O)c3ccccc3C2=O)c1,9.5 µM
11,CC(C)c1[nH]nc2c1C1(CCN(Cc3ccccc3)CC1)C(C#N)=C(N)O2,> 38 µM (inactive)
12,CCCCNC(=O)c1c(N)n(Cc2ccc3c(c2)OCO3)c2nc3ccccc3nc12,7.9 µM
13,C/C(CC(=O)Nc1cc(C)ccn1)=N\NC(=O)c1ccc(C)cc1,> 38 µM (inactive)
14,COc1cc(/C=C2/C(=O)N(c3ccccc3)N=C2C)ccc1OS(=O)(=O)c1ccccc1,3.34 µM
15,O=C(CCl)N(Cc1cc(=O)[nH]c2ccccc12)c1ccccc1,8.46 µM
16,CCOC(=O)c1c(NC(=O)/C=C/C(=O)O)sc(C)c1-c1ccc(C)c(C)c1,10.7 µM
17,O=C(NCc1cccnc1)/C(=C/c1ccc(-c2ccc(Cl)cc2)o1)S(=O)(=O)c1ccccc1,32.4 µM
18,[O-][n+]1c2c(nc3c1-c1ccccc1C3O)CCCC2 (stereo not given),31.2 µM
19,O=C(CCl)NC(=O)NC12CC3CC(CC(C3)C1)C2,13.3 µM
20,CCOC(=O)CNc1nnc(SCC(=O)OCC)[nH]c1=O,10.2 µM
21,O=C(CCl)Nc1cccc(CP(=O)(c2ccccc2)c2ccccc2)c1,17.8 µM
22,Cc1nccn1-c1c([N+](=O)[O-])c(=O)n(C)c2ccccc12,> 38 µM (inactive)
23,CCS(=O)(=O)C1=NN2C(=N)/C(=C\c3ccc(OC(=O)c4ccco4)cc3)C(=O)N=C2S1,> 38 µM (inactive)
24,CC1CC(=O)c2c(cc3c(-c4c(O)cc(O)c5c(O)c6c(cc45)OC(C)CC6=O)c(O)cc(O)c3c2O)O1 (stereo not given),2.71 µM
25,Cc1cccc(S(=O)(=O)C(C#N)c2nc3ccccc3nc2N2CCCC2)c1 (stereo not given),> 38 µM (inactive)
26,Nc1nc(-c2ccco2)nn1C(=O)c1ccc(Cl)cc1,> 38 µM (inactive)
27,Cc1c(N=C2C=CC(=O)c3ccccc32)c(=O)n(-c2ccccc2)n1C,3.51 µM

row,Structure (SMILES),AC50
1,O=C(/C=C/c1cccs1)Nc1scc(-c2ccccc2)c1C(=O)O,23.7 µM
2,NC1=NN(c2cccc(C(=O)O)c2)C(=O)C1,29.4 µM
3,CCOC(=O)c1nnn(-c2nonc2-n2cccc2)c1CCl,26.6 µM
4,CC(C)(C)c1ccc(C(=O)Cn2cnnc2C#N)cc1,> 38 µM (inactive)
5,CCc1ccc(S(=O)(=O)/N=C2\C=C(Nc3ccc(C(=O)O)cc3)C(=O)c3ccccc32)cc1,0.348 µM
6,O=c1oc2cc(Oc3c([N+](=O)[O-])cc(C(F)(F)F)cc3[N+](=O)[O-])ccc2c2c1CCCC2,> 38 µM (inactive)
7,Cc1[nH]nc2c1C1(CCC3(CC1)OCCO3)C(C#N)=C(N)O2,> 38 µM (inactive)
8,Cc1ccc(C)c(NC2=C(Cl)C(=O)OC2OC(=O)c2ccco2)c1 (stereo not given),> 38 µM (inactive)
9,NC(=O)C1CCN(C2=C(Cl)C(=O)c3ccccc3C2=O)CC1,1.97 µM
10,O=S(=O)(O)Oc1c[nH]c2ccccc12,5.48 µM
11,Cc1ccc(C(=O)c2coc3cc([N+](=O)[O-])c(O)c([N+](=O)[O-])c23)cc1,> 38 µM (inactive)
12,C/C(CC(=O)Nc1cc(C)ccn1)=N\NC(=O)c1ccccc1C,> 38 µM (inactive)
13,COc1ccc(N(C(=O)COc2cccc(C)c2)S(=O)(=O)c2ccc(C)cc2)cc1,> 38 µM (inactive)
14,O=C(CCl)N(Cc1ccccc1)c1ccccc1,4.16 µM
15,Cc1nc2ccccc2c2c1C(=O)N(C(C)C)C2=O,> 38 µM (inactive)
16,C/C(CC(=O)Nc1ccccc1[N+](=O)[O-])=N\NC(=O)COc1ccccc1C,> 38 µM (inactive)
17,CC(/C=N/NC(=O)Cc1cc(=O)[nH][nH]1)=C\c1ccccc1,27 µM
18,Cc1cccc(CS(=O)(=O)c2nnc([C@H](Cc3ccccc3)NC(=O)OC(C)(C)C)o2)c1,> 38 µM (inactive)
19,CC1CCCC(NC(=O)NC(=O)CCl)C1C (stereo not given),29.3 µM
20,COC(=O)CC1(c2cccc3ccccc23)C(=O)c2ccccc2C1=O,19.1 µM
21,O=C1C(Cl)=C(NCCN2CCCCC2)C(=O)c2ccccc21,13.3 µM
22,C=CCNC1=C(Cl)C(=O)c2ccccc2C1=O,18.4 µM
23,CCC(C)[C@H](NC(=O)NC1CCN(Cc2ccccc2)CC1)C(=O)OC (stereo not given in full),5.82 µM
24,COc1cc(C2C(C#N)=C(N)Oc3n[nH]c(C)c32)cc2c1OCO2 (stereo not given),8.43 µM
